Test results taken from US10111874B2, “Combination therapies for treatment of cancer” (Araxes Pharma LLC, priority 2014, dated 2018).

Biological target: T1, KRAS G12C 1-169, his-tagged protein, GDP-loaded (Homo sapiens, UniProt P01116, G12C)
T1 construct: KRAS G12C 1-169, his-tagged protein, GDP-loaded
Experiment: Biochemical assay: covalent binding to KRAS G12C analyzed by mass spectrometry; note: test concentration or dose not given here

T1 sequence (P01116 1-169 isoform P01116-2 G12C): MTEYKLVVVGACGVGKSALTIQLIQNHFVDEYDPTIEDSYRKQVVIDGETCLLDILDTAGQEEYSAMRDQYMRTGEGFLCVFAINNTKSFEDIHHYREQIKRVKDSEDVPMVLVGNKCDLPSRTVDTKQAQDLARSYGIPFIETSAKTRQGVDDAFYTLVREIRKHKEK

Row | SMILES | Binding % (determined at 24 hrs) | Binding % (determined at 2 hrs)
1 | C=CC(=O)N1CC(N2CCN(C(=O)c3cc(C4CC4)c(Cl)cc3OC)CC2)C1 [II-47, 1-(3-(4-(4-chloro-5-cyclopropyl-2-methoxybenzoyl)-piperazin-1-yl)azetidin-1-yl)prop-2-en-1-one] | + (+indicates binding activity from 5% to 15%) | 
2 | C=CC(=O)N1CC(N2CCN(C(=O)c3cc(-c4cc(Cl)ccc4Cl)c(Cl)cc3O)CC2)C1 [II-48, 1-(3-(4-(2′,5′,6-trichloro-4-hydroxybiphenyl-carbonyl)piperazin-1-yl)azetidin-1-yl)prop-2-en-1-one] | ++ (++indicates binding activity greater than 15% and up to 25%) | 
3 | C=CC(=O)N1CC(N2CCN(C(=O)C(CC)Nc3cc(Cl)c(Cl)cc3O)CC2)C1 (stereo not drawn) [II-49, 1-(4-(1-acryloylazetidin-3-yl)piperazin-1-yl)-2-(4,5-dichloro-2-hydroxyphenyl-amino)butan-1-one] | ++++ (++++indicates binding activity greater than 50%) | 
4 | C=CC(=O)N1CC(N2CCN(C(=O)CNc3cc(C(C)C)c(Cl)cc3O)CC2)C1 [II-50, 1-(3-(4-(2-(4-Chloro-2-hydroxy-5-isopropylphenylamino)acetyl)piperazin-1-yl)azetidin-1-yl)prop-2-en-1-one] |  | ++ (++indicates binding activity greater than 20%)
5 | C=CC(=O)N1CC(N2CCN(C(=O)CNc3cc(C4CC4)c(Cl)cc3O)CC2C(N)=O)C1 (stereo not drawn) [II-51, 1-(1-acryloylazetidin-3-yl)-4-(2-(4-chloro-5-cyclopropyl-2-hydroxyphenylamino)acetyl)piperazine-2-carboxamide] |  | ++ (++indicates binding activity greater than 20%)
6 | C=CC(=O)N1CC(N2CCN(C(=O)CNc3cc(Cl)c(CC)cc3O)CC2)C1 [II-52, 1-(3-(4-(2-(5-chloro-4-ethyl-2-hydroxyphenylamino)acetyl)piperazin-1-yl)azetidin-1-yl)prop-2-en-1-one] |  | + (+indicates binding activity from 5% to 20%)
7 | C=CC(=O)N1CC(N2CCN(C(=O)CNc3cc(C4CCC4)c(Cl)cc3O)CC2)C1 [II-53, 1-(3-(4-(2-(4-chloro-5-cyclobutyl-2-hydroxyphenylamino)acetyl)piperazin-1-yl)azetidin-1-yl)prop-2-en-1-one] |  | ++ (++indicates binding activity greater than 20%)
8 | C=CC(=O)N1CC(N2CCN(C(=O)CNc3cc(C4CC4)c(Cl)cc3O)CC2CO)C1 (stereo not drawn) [II-54, 1-(3-(4-(2-(4-Chloro-5-cyclopropyl-2-hydroxyphenylamino)acetyl)-2-(hydroxymethyl)piperazin-1-yl)azetidin-1-yl)prop-2-en-1-one] |  | ++ (++indicates binding activity greater than 20%)
9 | C=CC(=O)N1CC(N2CCN(C(=O)CNc3cc(CC)c(Cl)cc3O)CC2)C1 [II-55, 1-(3-(4-(2-(4-chloro-5-ethyl-2-hydroxyphenylamino)acetyl)piperazin-1-yl)azetidin-1-yl)prop-2-en-1-one] |  | ++ (++indicates binding activity greater than 20%)
10 | C=CC(=O)N1CC(N2CCN(C(=O)CNc3cc(C4CC4(F)F)c(Cl)cc3O)CC2)C1 (stereo not drawn) [II-56, 1-(3-(4-((4-chloro-5-(2,2-difluorocyclopropyl)-2-hydroxyphenyl)glycyl)piperazin-1-yl)azetidin-1-yl)prop-2-en-1-one] |  | ++ (++indicates binding activity greater than 20%)
11 | C=CC(=O)N1CC(N2CCN(C(=O)CNc3cc(CC(F)(F)F)c(Cl)cc3O)CC2)C1 [II-57, 1-(3-(4-(2-((4-Chloro-2-hydroxy-5-(2,2,2-trifluoroethyl)phenyl)amino)acetyl)piperazin-1-yl)azetidin-1-yl)prop-2-en-1-one] |  | ++ (++indicates binding activity greater than 20%)
12 | C=CC(=O)N1CC(N2CCN(C(=O)CCc3cc(C4CC4)c(Cl)cc3O)CC2)C1 [II-58, 1-(3-(4-(3-(4-Chloro-5-cyclopropyl-2-hydroxyphenyl)propanoyl)piperazin-1-yl)azetidin-1-yl)prop-2-en-1-one] |  | + (+indicates binding activity from 5% to 20%)
